The numbers were not newly measured in patent US11571373B2, “Skin care preparations for babies” (priority 2015, dated 2023), which cites them from elsewhere.

For series [1] the following is noted: species and route not given.
The conditions of series [2]: in vivo.

As to `[O-2].[Zn+2]` [Zinc oxide (CI 77947), Zinc oxide], the solubility in water is recorded as 0.00016 g/100 ml water.
With C12-C13 Pareth-4, the “The actual or estimated LD50 value” in series [1] was 2,000 mg/kg body weight.
Turning to Disodium Laureth Sulfosuccinate, the “The actual or estimated LD50 value” in series [1] is reported as 5,000 mg/kg body weight.
Take Sodium Cocoamphoacetate: the “Oral LD50 value (rat)” value in the series on rat was 14,859 mg/kg. Moreover, the “The actual or estimated LD50 value” in series [1] is given as 14,859 mg/kg body weight.
With Tocopherol, in series [2], the average absorption was 40-60% and the “share transported via the lymphatic system into the bloodstream” value is given as “About 90%”. Moreover, the “extent of oral absorption” value in series [2] (po) was 20-80%.
